1 compound from PMC5428509, “Irreversible inhibition of BTK kinase by a novel highly selective inhibitor CHMFL-BTK-11 suppresses inflammatory response in rheumatoid arthritis model” (Scientific Reports, 2017) can be followed below.

What all share (assay): biochemical
Design in all cases: KinomeScan competition binding panel (DiscoveRx), percent of control at 1 uM
Settings in all cases: read-out: Percent Control

The target of experiment [1] is KIT(V559D,V654A) (Homo sapiens, UniProt P10721, V559D/V654A). The essentials:
(§1)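 Selectivity profiled across 456 kinases/mutants by KinomeScan binding technology.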

Experiment [2] concerns the target PAK2 (Homo sapiens, UniProt Q13177). In outline: as §1
Experiment [3] addresses FGFR3(G697C) (Homo sapiens, UniProt P22607, G697C). The essentials:
as §1

The target in experiment [4] is T1, SNARK (Homo sapiens, UniProt Q9H093).
T1 construct: gene NUAK2
In outline:
as §1

Experiment [5] concerns the target T2, ABL1(F317I)-nonphosphorylated (Homo sapiens, UniProt P00519, F317I).
T2 construct: nonphosphorylated
The essentials: as §1

The target of experiment [6] is CDK9 (Homo sapiens, UniProt P50750). The essentials: as §1
Sequence of CDK9 (P50750 whole entry): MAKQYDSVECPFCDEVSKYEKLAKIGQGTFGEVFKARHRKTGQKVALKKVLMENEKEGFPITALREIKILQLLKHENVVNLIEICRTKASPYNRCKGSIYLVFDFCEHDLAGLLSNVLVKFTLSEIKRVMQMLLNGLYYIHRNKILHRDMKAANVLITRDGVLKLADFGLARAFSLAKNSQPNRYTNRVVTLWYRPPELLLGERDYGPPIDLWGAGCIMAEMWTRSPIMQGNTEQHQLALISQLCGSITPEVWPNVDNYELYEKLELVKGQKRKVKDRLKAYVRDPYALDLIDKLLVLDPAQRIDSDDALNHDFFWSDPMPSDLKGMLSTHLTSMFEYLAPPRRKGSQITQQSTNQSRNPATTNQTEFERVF
Experiment [7] concerns the target T3, RPS6KA5(Kin.Dom.1-N-terminal) (Homo sapiens, UniProt O75582).
T3 construct: Kin.Dom.1-N-terminal
In outline: as §1

Experiment [8] concerns the target T4, ABL1(F317L)-phosphorylated (Homo sapiens, UniProt P00519, F317L).
T4 construct: phosphorylated
The essentials:
as §1

Experiment [9] deals with PIK3CA(Q546K) (Homo sapiens, UniProt P42336, Q546K). The essentials:
as §1

For experiment [10], the target named is BMPR1A (Homo sapiens, UniProt P36894). The essentials:
as §1

Experiment [11] has as its target INSR (Homo sapiens, UniProt P06213). In outline:
as §1

Experiment [12] addresses PRKD1 (Homo sapiens, UniProt Q15139). The essentials: as §1
For experiment [13], the target named is T5, CDC2L2 (Homo sapiens, UniProt Q9UQ88).
T5 construct: gene CDK11A
In outline:
as §1

For experiment [14], the target named is ERN1 (Homo sapiens, UniProt O75460). The essentials: as §1
The target of experiment [15] is PIK3CG (Homo sapiens, UniProt P48736). In outline:
as §1

Experiment [16] concerns the target ALK(L1196M) (Homo sapiens, UniProt Q9UM73, L1196M). The essentials: as §1
Experiment [17] has as its target T6, RPS6KA5(Kin.Dom.2-C-terminal) (Homo sapiens, UniProt O75582).
T6 construct: Kin.Dom.2-C-terminal
In outline: as §1

Experiment [18] has as its target T7, RSK3(Kin.Dom.2-C-terminal) (Homo sapiens, UniProt Q15349).
T7 construct: gene RPS6KA2; Kin.Dom.2-C-terminal
The essentials:
as §1

Experiment [19] has as its target T8, PIP5K2C (Homo sapiens, UniProt Q8TBX8).
T8 construct: gene PIP4K2C
The essentials:
as §1

Experiment [20] deals with T9, FAK (Homo sapiens, UniProt Q05397).
T9 construct: gene PTK2
The essentials: as §1

The target in experiment [21] is CDK3 (Homo sapiens, UniProt Q00526). In outline:
as §1

Experiment [22] has as its target EIF2AK1 (Homo sapiens, UniProt Q9BQI3). The essentials: as §1
Experiment [23] has as its target T10, PCTK1 (Homo sapiens, UniProt Q00536).
T10 construct: gene CDK16
In outline:
as §1

Experiment [24] addresses HIPK4 (Homo sapiens, UniProt Q8NE63). In outline: as §1

T6 sequence (O75582 whole entry): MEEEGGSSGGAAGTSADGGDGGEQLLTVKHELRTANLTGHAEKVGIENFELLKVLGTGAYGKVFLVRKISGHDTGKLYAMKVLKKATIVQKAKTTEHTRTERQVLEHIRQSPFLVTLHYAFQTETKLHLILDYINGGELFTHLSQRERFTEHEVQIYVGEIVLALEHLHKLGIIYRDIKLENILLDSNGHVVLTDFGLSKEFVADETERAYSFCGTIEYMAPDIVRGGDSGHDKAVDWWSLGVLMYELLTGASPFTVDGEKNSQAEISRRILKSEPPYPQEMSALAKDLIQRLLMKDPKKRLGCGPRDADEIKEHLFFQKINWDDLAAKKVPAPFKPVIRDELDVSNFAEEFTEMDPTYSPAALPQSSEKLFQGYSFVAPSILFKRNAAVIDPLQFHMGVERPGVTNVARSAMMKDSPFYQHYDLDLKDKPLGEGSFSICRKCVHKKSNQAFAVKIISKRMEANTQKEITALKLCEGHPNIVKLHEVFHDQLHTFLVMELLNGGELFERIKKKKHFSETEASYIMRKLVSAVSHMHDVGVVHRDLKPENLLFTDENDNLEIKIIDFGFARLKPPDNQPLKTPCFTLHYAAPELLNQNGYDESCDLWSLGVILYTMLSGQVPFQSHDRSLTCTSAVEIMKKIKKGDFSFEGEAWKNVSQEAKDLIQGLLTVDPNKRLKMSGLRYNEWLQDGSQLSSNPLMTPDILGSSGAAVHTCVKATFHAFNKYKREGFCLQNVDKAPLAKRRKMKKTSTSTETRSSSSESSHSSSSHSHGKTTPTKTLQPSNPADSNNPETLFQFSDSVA
T3 sequence (O75582 whole entry): as above
Sequence of BMPR1A (P36894 whole entry): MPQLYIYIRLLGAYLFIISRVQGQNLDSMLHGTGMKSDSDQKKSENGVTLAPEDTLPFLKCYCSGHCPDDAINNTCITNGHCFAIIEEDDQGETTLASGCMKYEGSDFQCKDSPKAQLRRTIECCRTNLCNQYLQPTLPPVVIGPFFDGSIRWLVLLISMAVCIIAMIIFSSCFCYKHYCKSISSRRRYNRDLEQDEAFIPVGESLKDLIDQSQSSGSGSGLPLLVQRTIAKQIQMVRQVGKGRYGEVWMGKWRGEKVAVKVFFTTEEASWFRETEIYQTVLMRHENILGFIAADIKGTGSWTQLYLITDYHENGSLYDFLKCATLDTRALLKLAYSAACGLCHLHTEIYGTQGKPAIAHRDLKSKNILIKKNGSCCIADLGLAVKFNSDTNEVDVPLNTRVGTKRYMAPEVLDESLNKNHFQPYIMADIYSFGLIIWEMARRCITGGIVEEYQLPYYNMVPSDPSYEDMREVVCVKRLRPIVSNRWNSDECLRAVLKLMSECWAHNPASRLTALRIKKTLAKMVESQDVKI
T8 sequence (Q8TBX8 whole entry): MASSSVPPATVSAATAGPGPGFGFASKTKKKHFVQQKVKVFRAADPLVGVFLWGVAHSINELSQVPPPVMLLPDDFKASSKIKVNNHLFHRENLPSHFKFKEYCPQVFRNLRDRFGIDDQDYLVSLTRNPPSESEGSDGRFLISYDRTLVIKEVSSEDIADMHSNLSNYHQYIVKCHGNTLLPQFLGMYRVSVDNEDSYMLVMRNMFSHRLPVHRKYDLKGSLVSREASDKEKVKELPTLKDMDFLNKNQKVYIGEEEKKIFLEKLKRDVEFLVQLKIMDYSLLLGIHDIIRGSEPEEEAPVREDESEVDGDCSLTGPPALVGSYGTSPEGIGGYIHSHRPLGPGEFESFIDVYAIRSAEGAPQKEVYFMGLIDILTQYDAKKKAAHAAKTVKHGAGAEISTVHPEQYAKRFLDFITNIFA
T4 sequence (P00519 whole entry F317L): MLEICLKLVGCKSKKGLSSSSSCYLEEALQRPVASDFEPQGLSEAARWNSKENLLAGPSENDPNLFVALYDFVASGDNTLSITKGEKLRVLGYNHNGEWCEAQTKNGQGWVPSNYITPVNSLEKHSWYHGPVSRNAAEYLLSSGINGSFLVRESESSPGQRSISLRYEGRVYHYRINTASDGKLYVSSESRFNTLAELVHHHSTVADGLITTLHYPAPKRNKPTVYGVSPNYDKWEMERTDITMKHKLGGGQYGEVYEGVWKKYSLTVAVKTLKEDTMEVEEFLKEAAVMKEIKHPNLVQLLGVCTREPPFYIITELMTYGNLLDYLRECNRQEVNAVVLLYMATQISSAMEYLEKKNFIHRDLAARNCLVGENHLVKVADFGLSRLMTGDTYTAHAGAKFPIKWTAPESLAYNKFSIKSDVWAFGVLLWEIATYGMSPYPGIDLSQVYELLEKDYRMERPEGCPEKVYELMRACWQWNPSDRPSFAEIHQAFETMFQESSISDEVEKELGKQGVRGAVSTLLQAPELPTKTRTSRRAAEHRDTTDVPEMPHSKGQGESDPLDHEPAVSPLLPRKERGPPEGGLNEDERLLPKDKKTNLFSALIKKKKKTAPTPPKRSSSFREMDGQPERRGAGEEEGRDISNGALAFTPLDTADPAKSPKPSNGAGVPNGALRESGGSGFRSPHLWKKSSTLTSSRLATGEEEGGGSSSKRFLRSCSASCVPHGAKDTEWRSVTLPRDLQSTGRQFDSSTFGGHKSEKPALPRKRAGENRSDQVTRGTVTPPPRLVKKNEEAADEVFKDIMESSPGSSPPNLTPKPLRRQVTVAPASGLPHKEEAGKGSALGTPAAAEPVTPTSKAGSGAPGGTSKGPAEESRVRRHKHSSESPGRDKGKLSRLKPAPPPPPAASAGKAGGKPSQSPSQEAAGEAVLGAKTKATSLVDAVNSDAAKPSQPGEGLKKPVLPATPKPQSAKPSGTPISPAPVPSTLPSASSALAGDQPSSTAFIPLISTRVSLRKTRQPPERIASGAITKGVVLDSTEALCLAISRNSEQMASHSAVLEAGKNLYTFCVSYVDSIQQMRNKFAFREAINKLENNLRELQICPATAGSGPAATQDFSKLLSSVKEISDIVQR
Sequence of PRKD1 (Q15139 whole entry): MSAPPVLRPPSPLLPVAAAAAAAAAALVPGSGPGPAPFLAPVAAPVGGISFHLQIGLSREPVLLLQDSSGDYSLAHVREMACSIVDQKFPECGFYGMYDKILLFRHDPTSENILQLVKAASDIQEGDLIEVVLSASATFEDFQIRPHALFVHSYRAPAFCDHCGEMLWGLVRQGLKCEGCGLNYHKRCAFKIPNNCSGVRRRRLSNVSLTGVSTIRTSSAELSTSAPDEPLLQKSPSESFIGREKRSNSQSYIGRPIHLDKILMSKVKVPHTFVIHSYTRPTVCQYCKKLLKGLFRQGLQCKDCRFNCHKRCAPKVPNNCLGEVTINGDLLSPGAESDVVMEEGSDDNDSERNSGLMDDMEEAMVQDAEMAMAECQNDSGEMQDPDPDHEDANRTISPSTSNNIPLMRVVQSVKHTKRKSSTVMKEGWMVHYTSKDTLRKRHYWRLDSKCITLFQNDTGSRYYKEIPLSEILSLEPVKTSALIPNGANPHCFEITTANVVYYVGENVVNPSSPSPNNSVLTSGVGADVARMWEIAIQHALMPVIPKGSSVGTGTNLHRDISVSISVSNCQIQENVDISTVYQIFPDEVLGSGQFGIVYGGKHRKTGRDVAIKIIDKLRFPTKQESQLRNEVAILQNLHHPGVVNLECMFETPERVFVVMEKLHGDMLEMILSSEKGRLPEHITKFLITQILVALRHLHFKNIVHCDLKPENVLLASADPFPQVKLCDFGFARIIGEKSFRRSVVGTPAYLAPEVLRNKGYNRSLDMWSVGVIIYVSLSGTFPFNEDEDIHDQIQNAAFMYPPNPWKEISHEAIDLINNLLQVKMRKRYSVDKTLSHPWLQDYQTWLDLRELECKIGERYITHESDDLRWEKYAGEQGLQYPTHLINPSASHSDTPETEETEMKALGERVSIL
T2 sequence (P00519 whole entry F317I): as the sequence (P00519 whole entry F317L) above, with L317I counted along it
Sequence of HIPK4 (Q8NE63 whole entry): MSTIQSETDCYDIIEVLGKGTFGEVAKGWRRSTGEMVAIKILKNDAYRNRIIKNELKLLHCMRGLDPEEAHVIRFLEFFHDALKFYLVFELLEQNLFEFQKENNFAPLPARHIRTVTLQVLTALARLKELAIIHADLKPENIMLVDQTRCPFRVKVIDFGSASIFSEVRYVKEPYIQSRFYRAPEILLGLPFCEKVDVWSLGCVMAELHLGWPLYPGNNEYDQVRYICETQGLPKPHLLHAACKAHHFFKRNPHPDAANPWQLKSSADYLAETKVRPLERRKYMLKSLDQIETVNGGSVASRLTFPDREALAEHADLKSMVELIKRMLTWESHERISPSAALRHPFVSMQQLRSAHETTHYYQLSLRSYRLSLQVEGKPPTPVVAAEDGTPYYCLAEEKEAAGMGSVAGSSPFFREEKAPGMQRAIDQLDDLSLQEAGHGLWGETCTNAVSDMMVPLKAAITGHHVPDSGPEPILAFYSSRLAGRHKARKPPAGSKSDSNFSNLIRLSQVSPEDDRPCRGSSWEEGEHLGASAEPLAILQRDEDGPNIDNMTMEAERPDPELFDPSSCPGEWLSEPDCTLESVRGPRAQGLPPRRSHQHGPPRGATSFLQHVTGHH

Take `C=CC(=O)Nc1cc(-n2c(=O)ccc3cnc4ccc(-n5cccn5)cc4c32)ccc1C` [CHMFL-BTK-11]: the remaining binding at 1 µM was 100% in experiment [1]; 99% in experiment [2]; 100% in experiment [3]; 90% in experiment [4]; 100% in experiment [5]; 96% in [6]. For the same compound, the remaining binding at 1 µM in experiment [7] was determined as 94%; in experiment [8], 100%; in [9] it was 97%; in [10], 100%; in experiment [11] it was 82%; in [12] it was 94%. In addition, the remaining binding at 1 µM in experiment [13] amounted to 100%; in [14] it was 76%; in experiment [15] it was 73%; in [16], 88%; in experiment [17] it was 89%; in experiment [18], 100%. The remaining binding at 1 µM in experiment [19] is 90%; in experiment [20] it was 100%; in [21], 100%; in experiment [22], 92%; in experiment [23], 100%; in [24] it was 94%.
